US20160031905A1, “Macrocyclic LRRK2 Kinase Inhibitors” (IPSEN PHARMA S.A.S., priority 2013, published 2016)

What was measured:
[1] = biological target: T1, LRRK2 recombinant protein (Homo sapiens, UniProt Q5S007); assay: Radiometric protein kinase assay (33PanQinase Activity Assay), in vitro peptide-based kinase assay; type: biochemical; details: protein kinase LRRK2 7.3 nM, ATP 0.3 μM, substrate GSK3(14-27), 30° C. for 60 minutes
T1 construct: purchased Invitrogen Corporation
Protocol: The inhibition of LRRK2 kinase was assessed using LRRK2 recombinant protein in an in vitro peptide-based kinase assay.
A radiometric protein kinase assay (^33PanQinase® Activity Assay) is used for measuring the kinase activity. All assays are performed in 96-well FlashPlates™ from Perkin Elmer in a 50 μl reaction volume. The reaction cocktail is […] in 4 steps in the following order: • 10 μl of non-radioactive ATP solution (in H2O) • 25 μl of assay buffer/[γ-^33P]-ATP mixture • 5 μl of test sample in 10% DMSO • 10 μl of enzyme/substrate mixture
The assay for LRRK2 contains 70 mM HEPES-NaOH pH 7.5, 3 mM MgCl2, 3 mM MnCl2, 3 μM Na-orthovanadate, 1.2 mM DTT, 50 μg/ml PEG20000, ATP (0.3 μM), [γ-^33P]-ATP (approx. […] per well), protein kinase LRRK2 (7.3 nM) and substrate (GSK3(14-27), 1.0 μg/50 μl). The kinase is obtained from Invitrogen Corporation.
The reaction cocktails were incubated at 30° C. for 60 minutes. The reaction was stopped with 50 μl of 2% (v/v) H3PO4, plates were aspirated and washed two times with 200 μl 0.9% (w/v) NaCl. Incorporation of ^33Pi (counting of “cpm”) was determined with a microplate scintillation counter.
The compounds are dissolved to 10 mM in DMSO. Where needed, solutions are sonicated in a bath sonicator.

T1 sequence (Q5S007 whole entry): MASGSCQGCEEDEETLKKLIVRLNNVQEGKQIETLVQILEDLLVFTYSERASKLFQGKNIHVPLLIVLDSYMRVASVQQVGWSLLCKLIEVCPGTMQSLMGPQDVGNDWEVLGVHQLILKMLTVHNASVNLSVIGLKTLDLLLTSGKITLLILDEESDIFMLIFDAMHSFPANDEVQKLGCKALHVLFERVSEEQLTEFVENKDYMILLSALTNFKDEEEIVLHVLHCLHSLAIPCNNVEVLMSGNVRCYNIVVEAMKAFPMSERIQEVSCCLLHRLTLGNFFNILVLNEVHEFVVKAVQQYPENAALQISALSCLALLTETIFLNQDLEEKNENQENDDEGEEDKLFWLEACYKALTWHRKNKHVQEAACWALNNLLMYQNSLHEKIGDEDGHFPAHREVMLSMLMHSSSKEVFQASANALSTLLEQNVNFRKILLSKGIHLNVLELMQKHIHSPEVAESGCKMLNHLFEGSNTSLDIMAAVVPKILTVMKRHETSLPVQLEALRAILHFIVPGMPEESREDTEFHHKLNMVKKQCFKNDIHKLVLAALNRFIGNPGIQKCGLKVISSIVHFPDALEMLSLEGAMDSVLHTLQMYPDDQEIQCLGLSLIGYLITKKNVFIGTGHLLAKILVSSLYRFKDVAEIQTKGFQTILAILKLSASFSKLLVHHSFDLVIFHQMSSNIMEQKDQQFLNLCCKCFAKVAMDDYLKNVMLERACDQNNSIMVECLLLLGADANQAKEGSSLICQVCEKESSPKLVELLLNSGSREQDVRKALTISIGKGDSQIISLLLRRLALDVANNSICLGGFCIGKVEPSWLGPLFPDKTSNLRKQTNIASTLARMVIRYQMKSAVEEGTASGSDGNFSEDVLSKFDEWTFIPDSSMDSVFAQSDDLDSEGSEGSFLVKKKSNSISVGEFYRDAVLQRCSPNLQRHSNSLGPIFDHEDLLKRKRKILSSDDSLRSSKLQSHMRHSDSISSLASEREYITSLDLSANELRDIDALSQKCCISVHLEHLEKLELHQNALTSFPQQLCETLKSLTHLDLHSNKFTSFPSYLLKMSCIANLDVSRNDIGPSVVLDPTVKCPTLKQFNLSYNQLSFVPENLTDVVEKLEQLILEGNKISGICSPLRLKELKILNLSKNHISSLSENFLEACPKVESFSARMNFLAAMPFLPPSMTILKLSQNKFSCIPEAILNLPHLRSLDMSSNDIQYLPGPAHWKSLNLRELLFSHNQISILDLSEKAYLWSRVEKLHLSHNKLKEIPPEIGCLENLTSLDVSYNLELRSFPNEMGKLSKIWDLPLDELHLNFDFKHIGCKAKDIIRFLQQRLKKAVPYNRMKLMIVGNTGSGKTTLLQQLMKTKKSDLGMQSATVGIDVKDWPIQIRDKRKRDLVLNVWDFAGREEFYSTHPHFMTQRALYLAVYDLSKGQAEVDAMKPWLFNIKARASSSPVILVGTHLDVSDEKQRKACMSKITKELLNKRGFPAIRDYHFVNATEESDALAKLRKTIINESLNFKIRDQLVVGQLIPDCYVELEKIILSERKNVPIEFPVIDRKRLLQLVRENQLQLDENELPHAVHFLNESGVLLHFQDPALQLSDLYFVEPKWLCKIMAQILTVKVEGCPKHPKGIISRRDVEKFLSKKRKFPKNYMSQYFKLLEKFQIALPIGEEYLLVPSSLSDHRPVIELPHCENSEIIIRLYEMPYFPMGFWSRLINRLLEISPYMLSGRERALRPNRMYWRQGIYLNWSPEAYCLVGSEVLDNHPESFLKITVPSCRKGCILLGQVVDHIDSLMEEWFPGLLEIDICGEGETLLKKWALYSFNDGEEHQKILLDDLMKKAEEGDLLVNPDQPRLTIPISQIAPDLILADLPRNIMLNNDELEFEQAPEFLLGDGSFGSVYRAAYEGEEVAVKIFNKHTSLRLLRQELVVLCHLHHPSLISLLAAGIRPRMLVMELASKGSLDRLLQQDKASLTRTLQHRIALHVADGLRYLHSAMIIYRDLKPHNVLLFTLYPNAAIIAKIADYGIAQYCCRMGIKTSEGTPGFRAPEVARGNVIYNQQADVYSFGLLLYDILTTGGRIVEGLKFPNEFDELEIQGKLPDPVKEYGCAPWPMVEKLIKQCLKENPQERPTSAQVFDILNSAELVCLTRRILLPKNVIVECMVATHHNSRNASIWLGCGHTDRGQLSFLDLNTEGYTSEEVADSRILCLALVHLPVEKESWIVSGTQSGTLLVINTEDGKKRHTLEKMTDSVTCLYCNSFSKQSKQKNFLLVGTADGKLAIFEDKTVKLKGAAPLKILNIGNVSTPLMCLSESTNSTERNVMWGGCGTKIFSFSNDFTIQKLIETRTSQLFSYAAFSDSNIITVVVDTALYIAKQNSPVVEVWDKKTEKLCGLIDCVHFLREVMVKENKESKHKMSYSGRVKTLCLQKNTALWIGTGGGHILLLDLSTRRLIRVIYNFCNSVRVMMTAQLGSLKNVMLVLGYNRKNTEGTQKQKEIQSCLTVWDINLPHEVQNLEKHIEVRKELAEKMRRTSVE

Structure (SMILES): Fc1ccc2cc1-c1cnn3ccc(nc13)NCCNCCN2 [Compound G7]
- melting point: > 300 °C
- IC50 [1]: < 100 nM

Structure (SMILES): CN1CCNCCCNc2ccc(F)c(c2)-c2cnn3ccc1nc23 [Compound G39]
- melting point: > 300 °C
- IC50 [1]: < 100 nM

Structure (SMILES): Fc1ccc2cc1OCCNCCNc1ccn3ncc-2c3n1 [Compound C2]
- melting point: > 300 °C
- IC50 [1]: < 100 nM

Structure (SMILES): Fc1ccc2cc1-c1cnc3ccc(nn13)NCCCNCCO2 [Compound G15]
- IC50 [1]: < 100 nM

Structure (SMILES): CN1CCNCCOc2cccc(c2)-c2cnn3ccc1nc23 [Compound G2]
- melting point: > 300 °C
- IC50 [1]: < 100 nM

Structure (SMILES): c1cc2cc(c1)-c1cnn3ccc(nc13)NCCNCCCN2 [Compound D3]
- melting point: > 300 °C
- IC50 [1]: < 100 nM

Structure (SMILES): Clc1ccc2cc1-c1cnn3ccc(nc13)NCCCNCCO2 [Compound G27]
- melting point: > 300 °C
- IC50 [1]: < 100 nM

Structure (SMILES): CN1CCCNCCNc2ccc(F)c(c2)-c2cnc3ccc1nn23 [Compound G50]
- IC50 [1]: < 100 nM

Structure (SMILES): Fc1ccc2cc1-c1cnn3ccc(nc13)NCCCNCCN2 [Compound G12]
- melting point: > 300 °C
- IC50 [1]: < 100 nM

Structure (SMILES): CN1CCCOc2ccc(F)c(c2)-c2cnn3ccc(nc23)NCC1 [Compound G25]
- melting point: 168.8 °C
- IC50 [1]: 100 to 1000 nM

Structure (SMILES): c1cc2cc(c1)-c1cnn3ccc(nc13)NCCCNCCO2 [Compound A33]
- melting point: > 300 °C
- IC50 [1]: < 100 nM

Structure (SMILES): CC1CNCCCNc2ccn3ncc(c3n2)-c2cc(ccc2F)O1 (stereo not drawn) [Compound G28]
- melting point: > 300 °C
- IC50 [1]: < 100 nM

Structure (SMILES): CC1COc2cccc(c2)-c2cnn3ccc(nc23)NCCCN1 (stereo not drawn) [Compound G31]
- IC50 [1]: < 100 nM

Structure (SMILES): c1cc2cc(c1)-c1cnn3ccc(nc13)OCCNCCCN2 [Compound G8]
- melting point: 276.7 °C
- IC50 [1]: < 100 nM

Structure (SMILES): Cc1ccc2cc1-c1cnn3ccc(nc13)NCCCNCCO2 [Compound G42]
- melting point: 296.8 °C
- IC50 [1]: 100 to 1000 nM

Structure (SMILES): c1cc2cc(c1)-c1cnn3ccc(nc13)NCCCCNCCO2 [Compound G14]
- melting point: > 300 °C
- IC50 [1]: < 100 nM

Structure (SMILES): CN1CCCNc2ccc(F)c(c2)-c2cnc3ccc(nn23)NCC1 [Compound G45]
- melting point: 289.1 °C
- IC50 [1]: < 100 nM

Structure (SMILES): CC1CNCCNc2ccn3ncc(c3n2)-c2cccc(c2)O1 (racemic) [Compound G5]
- melting point: 215 °C
- IC50 [1]: < 100 nM

Structure (SMILES): c1cc2cc(c1)-c1cnn3ccc(nc13)NCCCNCCN2 [Compound D4]
- melting point: 296.8 °C
- IC50 [1]: < 100 nM

Structure (SMILES): CN1CCCNCCNc2ccc(F)c(c2)-c2cnn3ccc1nc23 [Compound G35]
- melting point: 284.8 °C
- IC50 [1]: < 100 nM

Structure (SMILES): CN1CCCOc2ccc3ncc(n3n2)-c2cc(ccc2F)NCC1 [Compound G44]
- melting point: 242.3 °C
- IC50 [1]: < 100 nM

Structure (SMILES): Fc1ccc2cc1-c1cnc3ccc(nn13)NCCNCCCN2 [Compound G37]
- melting point: > 300 °C
- IC50 [1]: < 100 nM

Structure (SMILES): CN1CCCNCCOc2cccc(c2)-c2cnn3ccc1nc23 [Compound G17]
- melting point: 297.5 °C
- IC50 [1]: < 100 nM

Structure (SMILES): CC1COc2cccc(c2)-c2cnn3ccc(nc23)NCCN1 (stereo not drawn) [Compound G11]
- melting point: 245.9 °C
- IC50 [1]: < 100 nM

Structure (SMILES): CN1CCCNc2ccc(F)c(c2)-c2cnc3ccc(nn23)N(C)CC1 [Compound G48]
- melting point: 289.4 °C
- IC50 [1]: 100 to 1000 nM

Structure (SMILES): CN1CCCNc2ccn3ncc(c3n2)-c2cccc(c2)OCC1 [Compound G20]
- IC50 [1]: < 100 nM

Structure (SMILES): CN1CCCNCCOc2ccc(F)c(c2)-c2cnc3ccc1nn23 [Compound G24]
- melting point: > 300 °C
- IC50 [1]: < 100 nM

Structure (SMILES): Fc1ccc2cc1-c1cnc3ccc(nn13)OCCCNCCN2 [Compound G36]
- melting point: > 300 °C
- IC50 [1]: < 100 nM

Structure (SMILES): Fc1ccc2cc1-c1cnc3ccc(nn13)NCCNCCCO2 [Compound G33]
- melting point: > 300 °C
- IC50 [1]: < 100 nM
